# Results: the supplement of paper PMC10331698
# ± gives the standard deviation of the averaged measurements.
# Experiments:
# Assay in all cases: level (log10 ratio to DMSO vehicle control); higher = higher biomarker level / cell amount than vehicle control
# Details in all cases: in DMSO
# [1] = compound: C=C(C)C(=O)OCC(F)(F)C(F)(F)C(F)(F)C(F)(F)C(F)(F)C(F)(F)C(F)(F)F
# Description: (§1)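 BioMAP Diversity Plus panel of 12 human primary cell co-culture systems (3C, 4H, LPS, SAg, BT, BF4T, BE3C, CASM3C, HDF3CGF, KF3CT, MyoF, Mphg). Compounds were added 1 h before stimulation and left for 24 h (MyoF 48 h; BT 72 h for soluble read-outs or 6 d for IgG). Biomarkers were read by ELISA, cytotoxicity by SRB, PBMC viability and proliferation by Alamar Blue. Each well value was divided by the mean of 8 DMSO control wells on the same plate and log10 transformed; duplicate blinded samples were tested at 4 concentrations.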
# 1-(Perfluorohexyl)octane = compound: CCCCCCCCC(F)(F)C(F)(F)C(F)(F)C(F)(F)C(F)(F)C(F)(F)F [1-(Perfluorohexyl)octane]
# Description: as §1
# Azathioprine = compound: Cn1cnc([N+](=O)[O-])c1Sc1ncnc2[nH]cnc12 [Azathioprine]
# Description: as §1
# [2] = compound: O=C(O)C(F)(F)C(F)(F)C(F)(F)C(F)(F)C(F)(F)C(F)(F)C(F)(F)C(F)(F)C(F)(F)C(F)(F)C(F)(F)C(F)(F)C(F)(F)F [Perfluorotetradecanoic acid]
# Description: as §1
# [3] = compound: O=C(O)C(F)(F)OC(F)(F)C(F)(F)OC(F)(F)C(F)(F)C(F)(F)C(F)(F)F [Perfluoro-3,6-dioxadecanoic acid]
# Description: as §1
# [4] = compound: O=C(O)CCC(F)(F)C(F)(F)C(F)(F)F [3:3 Fluorotelomer carboxylic acid]
# Description: as §1
# 1H,1H-Heptafluorobutanol = compound: OCC(F)(F)C(F)(F)C(F)(F)F [1H,1H-Heptafluorobutanol]
# Description: as §1
Test System,level (log10) ([1]; 6700 nM),level (log10) ([1]; 20000 nM),level (log10) (1-(Perfluorohexyl)octane; 6700 nM),level (log10) (1-(Perfluorohexyl)octane; 20000 nM),level (log10) (Azathioprine; 1400 nM),level (log10) (Azathioprine; 4200 nM),level (log10) (Azathioprine; 13000 nM),level (log10) (Azathioprine; 38000 nM),level (log10) ([2]; 6700 nM),level (log10) ([2]; 20000 nM),level (log10) ([3]; 6700 nM),level (log10) ([3]; 20000 nM),level (log10) ([3]; 60000 nM),level (log10) ([4]; 6700 nM),level (log10) ([4]; 20000 nM),level (log10) ([4]; 60000 nM),"level (log10) (1H,1H-Heptafluorobutanol; 6700 nM)","level (log10) (1H,1H-Heptafluorobutanol; 20000 nM)","level (log10) (1H,1H-Heptafluorobutanol; 60000 nM)"
HDF3CGF:CD106/VCAM-1,-0.01 ± 0.037,-0.017 ± 0.11,-0.004 ± 0.016,-0.0265 ± 0.0064,-0.0485 ± 0.1,-0.021 ± 0.03,-0.08 ± 0.042,-0.243 ± 0.0057,-0.021 ± 0.0099,-0.122 ± 0.012,-0.0845 ± 0.0021,-0.15 ± 0.0057,-0.21 ± 0.013,-0.0055 ± 0.00071,0.02 ± 0.014,-0.009 ± 0.0085,-0.033 ± 0.048,-0.003 ± 0.079,-0.0055 ± 0.09
HDF3CGF:CXCL8/IL-8,-0.0015 ± 0.016,0.0045 ± 0.00071,0.0065 ± 0.0064,0.008 ± 0.0057,0.006 ± 0.014,-0.0155 ± 0.021,-0.009 ± 0.0028,0.0045 ± 0.029,-0.0045 ± 0.012,0.008 ± 0.0085,-0.0065 ± 0.005,-0.001 ± 0.0028,0.001 ± 0.016,-0.006 ± 0.016,-0.002 ± 0.0099,-0.004 ± 0.017,-0.0025 ± 0.0064,0 ± 0.0028,0.0015 ± 0.0021
HDF3CGF:CXCL9/MIG,0.02 ± 0.024,0.0165 ± 0.015,0.0055 ± 0.00071,0.025 ± 0.014,-0.002 ± 0.018,-0.0215 ± 0.013,-0.026 ± 0.02,-0.0645 ± 0.005,0.0075 ± 0.025,-0.001 ± 0.0042,-0.0175 ± 0.0064,-0.046 ± 0.092,-0.126,-0.0115 ± 0.018,-0.005 ± 0.0057,0.0295 ± 0.025,0.0035 ± 0.028,-0.0005 ± 0.022,-0.008 ± 0.033
HDF3CGF:CXCL10/IP-10,-0.012 ± 0.0042,-0.002 ± 0.025,-0.02 ± 0.041,-0.03 ± 0.055,-0.0225 ± 0.022,-0.037 ± 0.044,-0.0825 ± 0.012,-0.152 ± 0.0078,0.022 ± 0.0099,-0.0585 ± 0.1,-0.0505 ± 0.019,-0.0745 ± 0.026,-0.156 ± 0.04,-0.0005 ± 0.013,0.003 ± 0.0042,-0.011 ± 0.011,0.0105 ± 0.04,-0.006 ± 0.016,-0.0055 ± 0.011
HDF3CGF:CXCL11/I-TAC,0.016 ± 0.0071,-0.009 ± 0.023,-0.0255 ± 0.023,-0.0365 ± 0.057,-0.0495 ± 0.018,-0.042 ± 0.055,-0.078 ± 0.014,-0.21 ± 0.04,0.0165 ± 0.015,-0.0705 ± 0.08,-0.0355 ± 0.023,-0.0895 ± 0.028,-0.168 ± 0.024,0.0025 ± 0.0092,-0.0065 ± 0.0078,0.012 ± 0.035,-0.0135 ± 0.022,-0.0185 ± 0.011,-0.031 ± 0.061
HDF3CGF:Collagen I,-0.0035 ± 0.0078,0.0375 ± 0.005,0.006 ± 0.0085,-0.01 ± 0.1,-0.0185 ± 0.005,-0.059 ± 0.044,-0.0475 ± 0.028,-0.034 ± 0.064,-0.0105 ± 0.076,0.016 ± 0.078,-0.052 ± 0.011,-0.0485 ± 0.0064,-0.095 ± 0.13,-0.029 ± 0.0042,-0.006 ± 0.035,0.0325 ± 0.07,-0.005 ± 0.016,-0.0215 ± 0.0021,0.012 ± 0.017
HDF3CGF:Collagen III,-0.004 ± 0.0042,-0.0005 ± 0.0078,-0.029 ± 0.042,-0.0315 ± 0.042,-0.0145 ± 0.074,-0.114 ± 0.088,-0.101 ± 0.0064,-0.22 ± 0.096,-0.114 ± 0.057,-0.094 ± 0.13,-0.024 ± 0.044,-0.0885 ± 0.035,-0.286 ± 0.045,-0.012 ± 0.017,-0.007 ± 0.025,0.0245 ± 0.054,-0.0055 ± 0.076,-0.0285 ± 0.052,-0.0155 ± 0.044
HDF3CGF:EGFR,0.0245 ± 0.005,-0.007 ± 0.048,-0.007 ± 0.0028,0.0125 ± 0.005,-0.006 ± 0.0014,-0.0565 ± 0.076,-0.05 ± 0.061,-0.011 ± 0.1,-0.0725 ± 0.036,0.029 ± 0.081,-0.0005 ± 0.0064,-0.0815 ± 0.026,-0.135 ± 0.016,-0.023 ± 0.018,-0.012 ± 0.024,-0.003 ± 0.045,-0.086 ± 0.031,-0.0205 ± 0.081,-0.039 ± 0.1
HDF3CGF:M-CSF,0.009 ± 0.033,0.0245 ± 0.03,-0.022 ± 0.031,-0.0025 ± 0.021,-0.0255 ± 0.039,-0.018 ± 0.042,-0.0595 ± 0.011,-0.184 ± 0.025,0.041 ± 0.038,0 ± 0.067,-0.0555 ± 0.067,-0.065 ± 0.011,-0.152 ± 0.0078,0.002 ± 0.0099,-0.004 ± 0.0042,0.001 ± 0.013,0.0045 ± 0.035,0.0335 ± 0.00071,0.004 ± 0.02
HDF3CGF:MMP-1,-0.003 ± 0.02,-0.0045 ± 0.026,-0.0395 ± 0.012,-0.014 ± 0.023,0.0005 ± 0.0021,0.02 ± 0.021,0.0275 ± 0.022,0.0415 ± 0.0021,-0.044 ± 0.016,-0.019 ± 0.0071,-0.023 ± 0.011,-0.0485 ± 0.013,-0.068 ± 0.011,0.0045 ± 0.037,0.009 ± 0.017,0.0045 ± 0.015,0.0025 ± 0.018,-0.0035 ± 0.0021,-0.016 ± 0.059
HDF3CGF:PAI-I,0.011 ± 0.0099,0.0095 ± 0.019,0.0005 ± 0.016,0.0165 ± 0.0021,0.022 ± 0.054,-0.015 ± 0.037,-0.0545 ± 0.04,-0.198 ± 0.021,0.0475 ± 0.023,0.0405 ± 0.021,0.0225 ± 0.013,0.0375 ± 0.0021,0.045 ± 0.024,-0.006 ± 0.031,-0.0035 ± 0.023,0.0085 ± 0.005,-0.037 ± 0.037,-0.0045 ± 0.025,-0.054 ± 0.083
HDF3CGF:Proliferation 72hr,0.019 ± 0.018,0.001 ± 0.038,0.0085 ± 0.077,0.0325 ± 0.005,-0.0455 ± 0.079,-0.061 ± 0.035,-0.057 ± 0.0057,-0.162 ± 0.027,0.0655 ± 0.046,-0.063 ± 0.054,0.0245 ± 0.00071,0.116 ± 0.011,-0.0545 ± 0.036,-0.0095 ± 0.015,0.0385 ± 0.0092,0.021 ± 0.027,-0.011 ± 0.023,0.0255 ± 0.032,-0.029 ± 0.013
HDF3CGF:SRB,0.0255 ± 0.11,0.044 ± 0.12,0.0105 ± 0.11,0.022 ± 0.057,-0.0505 ± 0.04,-0.053 ± 0.02,-0.018 ± 0.025,-0.0325 ± 0.079,0.027 ± 0.014,0.0205 ± 0.069,0.0265 ± 0.033,0.0885 ± 0.022,0.0485 ± 0.079,0.029 ± 0.061,0.0105 ± 0.0078,0.011 ± 0.05,-0.047 ± 0.067,0.0415 ± 0.011,0.025 ± 0.033
HDF3CGF:TIMP-1,0.041 ± 0.038,0.036 ± 0.03,0.0105 ± 0.039,-0.0185 ± 0.03,-0.0195 ± 0.005,-0.0115 ± 0.033,-0.018 ± 0.024,-0.0695 ± 0.06,0.014 ± 0.037,-0.0385 ± 0.11,-0.0085 ± 0.00071,0.006 ± 0.11,0.0755 ± 0.083,0.0025 ± 0.019,0.004,0.0015 ± 0.0035,-0.021 ± 0.017,-0.028 ± 0.0099,-0.048 ± 0.11
